One block for each compound: values may come before it.
Columns and labels:
Experiment in all cases: KINOMEscan competition binding
MAP3K7 (human) = MAP3K7 (human) (UniProt O43318); settings: compound 10.0 µM
PIP5K1A (human) = PIP5K1A (human) (UniProt Q99755); settings: compound 10.0 µM
SRPK2 (human) = SRPK2 (human) (UniProt P78362); settings: compound 10.0 µM
MAPK8 (human) = MAPK8 (human) (UniProt P45983); settings: compound 10.0 µM
DAPK3 (human) = DAPK3 (human) (UniProt O43293); settings: compound 10.0 µM
[1] = tested on: FLT3 (human), P36888 [ITD]; settings: compound 10.0 µM
PIM3 (human) = PIM3 (human) (UniProt Q86V86); settings: compound 10.0 µM
[2] = tested on: FLT3 (human), P36888 [D835Y]; settings: compound 10.0 µM
TNIK (human) = TNIK (human) (UniProt Q9UKE5); settings: compound 10.0 µM
Sequence of TNIK (human) (Q9UKE5 whole entry, looked up): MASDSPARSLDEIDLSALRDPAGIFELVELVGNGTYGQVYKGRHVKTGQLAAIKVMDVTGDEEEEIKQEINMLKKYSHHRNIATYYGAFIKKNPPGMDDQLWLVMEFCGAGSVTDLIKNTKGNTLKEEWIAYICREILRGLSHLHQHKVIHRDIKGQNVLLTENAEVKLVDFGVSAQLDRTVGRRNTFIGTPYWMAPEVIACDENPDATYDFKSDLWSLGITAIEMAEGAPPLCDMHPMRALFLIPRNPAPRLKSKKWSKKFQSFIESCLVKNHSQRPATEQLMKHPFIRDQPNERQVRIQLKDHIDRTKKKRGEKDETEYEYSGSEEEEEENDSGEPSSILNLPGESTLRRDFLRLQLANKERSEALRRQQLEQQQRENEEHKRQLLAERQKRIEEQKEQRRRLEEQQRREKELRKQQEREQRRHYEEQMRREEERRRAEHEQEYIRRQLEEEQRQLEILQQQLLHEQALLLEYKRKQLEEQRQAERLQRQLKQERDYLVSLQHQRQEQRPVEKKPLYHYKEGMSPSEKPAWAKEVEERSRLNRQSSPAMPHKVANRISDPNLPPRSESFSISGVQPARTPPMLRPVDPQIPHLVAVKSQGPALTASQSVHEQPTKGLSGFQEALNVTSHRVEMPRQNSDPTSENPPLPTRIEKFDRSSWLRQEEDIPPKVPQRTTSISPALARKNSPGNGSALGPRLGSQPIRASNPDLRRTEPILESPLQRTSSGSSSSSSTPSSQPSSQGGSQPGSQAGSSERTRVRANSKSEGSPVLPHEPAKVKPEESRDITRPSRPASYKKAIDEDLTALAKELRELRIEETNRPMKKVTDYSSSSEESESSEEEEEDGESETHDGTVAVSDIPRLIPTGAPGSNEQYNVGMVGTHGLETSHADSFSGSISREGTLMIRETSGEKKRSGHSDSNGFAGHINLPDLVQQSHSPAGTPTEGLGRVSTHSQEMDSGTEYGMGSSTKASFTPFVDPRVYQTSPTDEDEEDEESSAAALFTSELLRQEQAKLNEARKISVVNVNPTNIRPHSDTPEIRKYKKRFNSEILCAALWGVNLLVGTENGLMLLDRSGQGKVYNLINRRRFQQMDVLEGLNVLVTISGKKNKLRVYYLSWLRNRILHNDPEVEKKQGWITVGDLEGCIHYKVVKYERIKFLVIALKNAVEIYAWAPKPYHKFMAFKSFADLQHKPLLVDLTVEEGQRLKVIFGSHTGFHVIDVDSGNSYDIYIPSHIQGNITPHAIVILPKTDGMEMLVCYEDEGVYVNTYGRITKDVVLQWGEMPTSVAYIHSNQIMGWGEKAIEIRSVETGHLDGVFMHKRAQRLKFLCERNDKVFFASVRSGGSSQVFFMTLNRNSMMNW

TTK (human) = TTK (human) (UniProt P33981); settings: compound 10.0 µM
Sequence of TTK (human) (P33981 whole entry, looked up): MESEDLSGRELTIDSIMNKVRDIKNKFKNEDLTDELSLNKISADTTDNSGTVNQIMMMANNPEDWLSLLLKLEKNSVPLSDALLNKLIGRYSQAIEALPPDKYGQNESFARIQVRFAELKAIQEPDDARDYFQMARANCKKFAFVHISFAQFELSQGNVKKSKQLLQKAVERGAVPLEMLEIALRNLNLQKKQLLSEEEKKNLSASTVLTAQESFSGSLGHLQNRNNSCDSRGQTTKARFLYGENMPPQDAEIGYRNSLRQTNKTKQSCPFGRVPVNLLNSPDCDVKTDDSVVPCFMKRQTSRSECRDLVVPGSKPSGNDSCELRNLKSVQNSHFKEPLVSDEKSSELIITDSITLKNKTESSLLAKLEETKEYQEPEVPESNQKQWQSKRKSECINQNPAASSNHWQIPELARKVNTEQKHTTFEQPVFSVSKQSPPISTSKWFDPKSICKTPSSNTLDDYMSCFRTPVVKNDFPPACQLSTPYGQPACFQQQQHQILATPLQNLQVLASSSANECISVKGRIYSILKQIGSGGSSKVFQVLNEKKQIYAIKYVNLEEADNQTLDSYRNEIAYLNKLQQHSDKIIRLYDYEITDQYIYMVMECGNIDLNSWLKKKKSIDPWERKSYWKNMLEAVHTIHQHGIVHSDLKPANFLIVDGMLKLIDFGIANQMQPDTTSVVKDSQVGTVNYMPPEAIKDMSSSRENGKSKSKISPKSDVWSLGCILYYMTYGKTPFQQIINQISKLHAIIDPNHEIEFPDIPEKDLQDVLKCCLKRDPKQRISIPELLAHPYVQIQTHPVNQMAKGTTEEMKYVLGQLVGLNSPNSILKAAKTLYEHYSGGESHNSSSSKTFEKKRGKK

RPS6KA2 KD2 (human) = RPS6KA2 KD2 (human) (UniProt Q15349); settings: compound 10.0 µM
CSNK2A2 (human) = CSNK2A2 (human) (UniProt P19784); settings: compound 10.0 µM
MKNK2 (human) = MKNK2 (human) (UniProt Q9HBH9); settings: compound 10.0 µM
[3] = tested on: KIT (human), P10721 [D816V]; settings: compound 10.0 µM
Sequence of KIT (human), P10721 [D816V] (P10721 whole entry D816V, looked up): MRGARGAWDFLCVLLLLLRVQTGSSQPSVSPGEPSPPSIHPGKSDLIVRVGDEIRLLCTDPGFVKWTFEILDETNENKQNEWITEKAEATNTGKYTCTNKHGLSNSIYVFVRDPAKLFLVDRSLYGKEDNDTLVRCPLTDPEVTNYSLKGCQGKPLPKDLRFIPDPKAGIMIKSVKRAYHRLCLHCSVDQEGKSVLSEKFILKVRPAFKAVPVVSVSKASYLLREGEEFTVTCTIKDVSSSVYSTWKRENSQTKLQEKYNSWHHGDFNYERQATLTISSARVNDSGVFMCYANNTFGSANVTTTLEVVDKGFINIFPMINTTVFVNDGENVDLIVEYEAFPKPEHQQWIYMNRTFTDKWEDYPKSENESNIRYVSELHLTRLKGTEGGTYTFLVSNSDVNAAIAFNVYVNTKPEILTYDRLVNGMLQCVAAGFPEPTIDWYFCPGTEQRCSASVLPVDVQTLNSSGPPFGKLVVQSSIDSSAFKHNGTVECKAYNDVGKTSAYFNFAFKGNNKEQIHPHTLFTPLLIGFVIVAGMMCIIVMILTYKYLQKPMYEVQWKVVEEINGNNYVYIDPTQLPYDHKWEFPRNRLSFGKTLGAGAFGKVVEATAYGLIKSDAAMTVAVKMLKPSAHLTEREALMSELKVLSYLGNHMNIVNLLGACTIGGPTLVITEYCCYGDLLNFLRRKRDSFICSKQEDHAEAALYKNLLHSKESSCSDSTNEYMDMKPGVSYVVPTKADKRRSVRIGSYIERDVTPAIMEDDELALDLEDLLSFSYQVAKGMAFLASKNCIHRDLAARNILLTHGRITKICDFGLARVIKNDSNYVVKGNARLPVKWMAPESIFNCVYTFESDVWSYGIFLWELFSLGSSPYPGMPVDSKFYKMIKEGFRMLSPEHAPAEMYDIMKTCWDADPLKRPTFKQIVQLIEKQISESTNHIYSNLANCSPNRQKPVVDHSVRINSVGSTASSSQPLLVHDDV

[4] = target: TYK2 JH2 pseudokinase (human) (UniProt P29597); settings: compound 10.0 µM
RPS6KA4 KD2 (human) = RPS6KA4 KD2 (human) (UniProt O75676); settings: compound 10.0 µM
MELK (human) = MELK (human) (UniProt Q14680); settings: compound 10.0 µM
TAOK1 (human) = TAOK1 (human) (UniProt Q7L7X3); settings: compound 10.0 µM
CIT (human) = CIT (human) (UniProt O14578); settings: compound 10.0 µM
[5] = tested on: EGFR (human), P00533 [747-751 del / S ins]; settings: compound 10.0 µM
GAK (human) = GAK (human) (UniProt O14976); settings: compound 10.0 µM
ULK2 (human) = ULK2 (human) (UniProt Q8IYT8); settings: compound 10.0 µM
STK11 (human) = STK11 (human) (UniProt Q15831); settings: compound 10.0 µM
PIK3CG (human) = PIK3CG (human) (UniProt P48736); settings: compound 10.0 µM
MAP4K2 (human) = MAP4K2 (human) (UniProt Q12851); settings: compound 10.0 µM
BRSK2 (human) = BRSK2 (human) (UniProt Q8IWQ3); settings: compound 10.0 µM
[6] = tested on: KIT (human), P10721 [V559D/V654A]; settings: compound 10.0 µM
Sequence of KIT (human), P10721 [V559D/V654A] (P10721 whole entry V559D/V654A, looked up): as the sequence (P10721 whole entry D816V, looked up) above, with V559D, V654A, V816D counted along it

BMP2K (human) = BMP2K (human) (UniProt Q9NSY1); settings: compound 10.0 µM
RIPK2 (human) = RIPK2 (human) (UniProt O43353); settings: compound 10.0 µM
STK17B (human) = STK17B (human) (UniProt O94768); settings: compound 10.0 µM
[7] = tested on: KIT (human), P10721 [V559D/T670I]; settings: compound 10.0 µM
Sequence of KIT (human), P10721 [V559D/T670I] (P10721 whole entry V559D/T670I, looked up): as the sequence (P10721 whole entry D816V, looked up) above, with V559D, T670I, V816D counted along it

AURKB (human) = AURKB (human) (UniProt Q96GD4); settings: for kinase still bound, per cent of control: compound 10.0 µM
Sequence of AURKB (human) (Q96GD4 whole entry, looked up): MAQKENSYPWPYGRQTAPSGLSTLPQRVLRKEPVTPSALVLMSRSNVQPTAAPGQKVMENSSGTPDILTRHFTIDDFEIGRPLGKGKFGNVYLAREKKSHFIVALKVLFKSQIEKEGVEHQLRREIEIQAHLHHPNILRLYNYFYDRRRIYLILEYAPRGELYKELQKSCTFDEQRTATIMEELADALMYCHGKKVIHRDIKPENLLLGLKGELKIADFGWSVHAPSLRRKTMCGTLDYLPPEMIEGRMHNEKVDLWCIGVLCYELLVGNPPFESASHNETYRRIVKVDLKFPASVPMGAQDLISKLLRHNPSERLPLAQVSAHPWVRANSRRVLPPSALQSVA

CLK4 (human) = CLK4 (human) (UniProt Q9HAZ1); settings: compound 10.0 µM
PIM2 (human) = PIM2 (human) (UniProt Q9P1W9); settings: compound 10.0 µM
PRKD1 (human) = PRKD1 (human) (UniProt Q15139); settings: compound 10.0 µM
PRKD3 (human) = PRKD3 (human) (UniProt O94806); settings: compound 10.0 µM
RPS6KA6 KD2 (human) = RPS6KA6 KD2 (human) (UniProt Q9UK32); settings: compound 10.0 µM
DYRK1B (human) = DYRK1B (human) (UniProt Q9Y463); settings: compound 10.0 µM
TLK1 (human) = TLK1 (human) (UniProt Q9UKI8); settings: compound 10.0 µM
CLK1 (human) = CLK1 (human) (UniProt P49759); settings: compound 10.0 µM
Sequence of CLK1 (human) (P49759 whole entry, looked up): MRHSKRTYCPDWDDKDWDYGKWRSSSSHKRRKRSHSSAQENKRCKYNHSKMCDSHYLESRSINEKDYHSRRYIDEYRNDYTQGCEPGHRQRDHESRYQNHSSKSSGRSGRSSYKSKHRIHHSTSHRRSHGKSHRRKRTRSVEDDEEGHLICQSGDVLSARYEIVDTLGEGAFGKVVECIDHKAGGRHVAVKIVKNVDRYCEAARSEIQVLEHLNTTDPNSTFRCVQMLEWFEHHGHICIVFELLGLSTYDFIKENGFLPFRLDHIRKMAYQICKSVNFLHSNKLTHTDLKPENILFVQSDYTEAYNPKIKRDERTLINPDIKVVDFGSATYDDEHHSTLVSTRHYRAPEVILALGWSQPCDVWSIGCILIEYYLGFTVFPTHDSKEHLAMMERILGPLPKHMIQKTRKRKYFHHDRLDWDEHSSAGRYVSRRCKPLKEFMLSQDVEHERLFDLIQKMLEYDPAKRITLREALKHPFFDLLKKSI

MAP2K3 (human) = MAP2K3 (human) (UniProt P46734); settings: compound 10.0 µM
PLK4 (human) = PLK4 (human) (UniProt O00444); settings: compound 10.0 µM
Sequence of PLK4 (human) (O00444 whole entry, looked up): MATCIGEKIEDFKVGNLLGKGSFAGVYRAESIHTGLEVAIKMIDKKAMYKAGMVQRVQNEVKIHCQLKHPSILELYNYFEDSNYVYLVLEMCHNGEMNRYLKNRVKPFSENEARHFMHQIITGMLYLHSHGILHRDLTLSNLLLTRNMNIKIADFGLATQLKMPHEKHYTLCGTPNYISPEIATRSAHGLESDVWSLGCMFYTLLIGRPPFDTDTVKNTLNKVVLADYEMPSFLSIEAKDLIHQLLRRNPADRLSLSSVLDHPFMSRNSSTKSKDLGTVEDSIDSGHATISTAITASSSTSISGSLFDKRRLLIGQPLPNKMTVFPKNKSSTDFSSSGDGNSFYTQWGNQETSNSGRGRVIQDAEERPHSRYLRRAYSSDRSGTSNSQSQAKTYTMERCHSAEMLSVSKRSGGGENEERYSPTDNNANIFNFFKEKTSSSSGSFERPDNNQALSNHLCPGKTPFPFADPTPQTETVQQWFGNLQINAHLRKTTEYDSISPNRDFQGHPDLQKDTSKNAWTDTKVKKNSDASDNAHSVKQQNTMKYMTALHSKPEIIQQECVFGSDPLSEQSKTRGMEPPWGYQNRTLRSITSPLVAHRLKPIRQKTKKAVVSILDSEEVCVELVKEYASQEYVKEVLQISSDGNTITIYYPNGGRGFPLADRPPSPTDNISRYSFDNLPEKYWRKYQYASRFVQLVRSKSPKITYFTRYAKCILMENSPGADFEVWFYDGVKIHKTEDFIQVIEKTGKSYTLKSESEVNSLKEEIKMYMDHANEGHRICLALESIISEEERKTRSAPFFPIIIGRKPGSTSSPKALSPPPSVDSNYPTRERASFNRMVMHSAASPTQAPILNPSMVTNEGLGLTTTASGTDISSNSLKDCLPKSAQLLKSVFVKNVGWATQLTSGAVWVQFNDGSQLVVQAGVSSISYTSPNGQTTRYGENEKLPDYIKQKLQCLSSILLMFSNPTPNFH

kinase still bound, per cent of control (MAP3K7 (human)): 89% | kinase still bound, per cent of control (PIP5K1A (human)): 99% | kinase still bound, per cent of control (SRPK2 (human)): 100% | kinase still bound, per cent of control (MAPK8 (human)): 100% | kinase still bound, per cent of control (DAPK3 (human)): 100% | kinase still bound, per cent of control [1]: 100% | kinase still bound, per cent of control (PIM3 (human)): 100% | kinase still bound, per cent of control [2]: 79% | kinase still bound, per cent of control (TNIK (human)): 100% | kinase still bound, per cent of control (TTK (human)): 95% | kinase still bound, per cent of control (RPS6KA2 KD2 (human)): 64% | kinase still bound, per cent of control (CSNK2A2 (human)): 78% | kinase still bound, per cent of control (MKNK2 (human)): 66% | kinase still bound, per cent of control [3]: 100% | kinase still bound, per cent of control [4]: 61% | kinase still bound, per cent of control (RPS6KA4 KD2 (human)): 98% | kinase still bound, per cent of control (MELK (human)): 99% | kinase still bound, per cent of control (TAOK1 (human)): 75% | kinase still bound, per cent of control (CIT (human)): 100% | kinase still bound, per cent of control [5]: 86% | kinase still bound, per cent of control (GAK (human)): 100% | kinase still bound, per cent of control (ULK2 (human)): 89% | kinase still bound, per cent of control (STK11 (human)): 100% | kinase still bound, per cent of control (PIK3CG (human)): 70% | kinase still bound, per cent of control (MAP4K2 (human)): 100% | kinase still bound, per cent of control (BRSK2 (human)): 100% | kinase still bound, per cent of control [6]: 100% | kinase still bound, per cent of control (BMP2K (human)): 100% | kinase still bound, per cent of control (RIPK2 (human)): 100% | kinase still bound, per cent of control (STK17B (human)): 100% | kinase still bound, per cent of control [7]: 75% | kinase still bound, per cent of control (AURKB (human)): 74% | kinase still bound, per cent of control (CLK4 (human)): 100% | kinase still bound, per cent of control (PIM2 (human)): 100% | kinase still bound, per cent of control (PRKD1 (human)): 100% | kinase still bound, per cent of control (PRKD3 (human)): 90% | kinase still bound, per cent of control (RPS6KA6 KD2 (human)): 100% | kinase still bound, per cent of control (DYRK1B (human)): 100% | kinase still bound, per cent of control (TLK1 (human)): 86% | kinase still bound, per cent of control (CLK1 (human)): 100% | kinase still bound, per cent of control (MAP2K3 (human)): 84% | kinase still bound, per cent of control (PLK4 (human)): 84%
Structure (SMILES): CN1CCN(c2ccc(C(=O)Nc3ncc4c(n3)N(C)c3ccccc3C(=O)N4C)cc2)CC1

kinase still bound, per cent of control (PIP5K1A (human)): 3.3% | kinase still bound, per cent of control (SRPK2 (human)): 9.9% | kinase still bound, per cent of control (MAPK8 (human)): 20% | kinase still bound, per cent of control (DAPK3 (human)): 6.2% | kinase still bound, per cent of control [1]: 1.2% | kinase still bound, per cent of control (PIM3 (human)): 1.6% | kinase still bound, per cent of control [2]: 0.45% | kinase still bound, per cent of control (TNIK (human)): 8% | kinase still bound, per cent of control (TTK (human)): 2.4% | kinase still bound, per cent of control (RPS6KA2 KD2 (human)): 13% | kinase still bound, per cent of control (CSNK2A2 (human)): 5.1% | kinase still bound, per cent of control [3]: 3.8% | kinase still bound, per cent of control (RPS6KA4 KD2 (human)): 27% | kinase still bound, per cent of control (MELK (human)): 28% | kinase still bound, per cent of control (TAOK1 (human)): 10% | kinase still bound, per cent of control (CIT (human)): 19% | kinase still bound, per cent of control (GAK (human)): 0.9% | kinase still bound, per cent of control (STK11 (human)): 6% | kinase still bound, per cent of control (MAP4K2 (human)): 6.9% | kinase still bound, per cent of control (BRSK2 (human)): 7.1% | kinase still bound, per cent of control [6]: 23% | kinase still bound, per cent of control (BMP2K (human)): 0% | kinase still bound, per cent of control (STK17B (human)): 0.2% | kinase still bound, per cent of control [7]: 14% | Kd (AURKB (human)): 210 nM | kinase still bound, per cent of control (AURKB (human)): 0.8% | kinase still bound, per cent of control (CLK4 (human)): 2.8% | kinase still bound, per cent of control (PIM2 (human)): 0.9% | kinase still bound, per cent of control (PRKD1 (human)): 16% | kinase still bound, per cent of control (PRKD3 (human)): 26% | kinase still bound, per cent of control (RPS6KA6 KD2 (human)): 8.6% | kinase still bound, per cent of control (DYRK1B (human)): 11% | kinase still bound, per cent of control (TLK1 (human)): 28% | kinase still bound, per cent of control (CLK1 (human)): 2% | kinase still bound, per cent of control (PLK4 (human)): 0.95%
Structure (SMILES): N=C1NC(=O)/C(=C/c2ccc(-c3cncc4ccccc34)o2)S1

kinase still bound, per cent of control (MAP3K7 (human)): 28% | kinase still bound, per cent of control (PIP5K1A (human)): 17% | kinase still bound, per cent of control (SRPK2 (human)): 32% | kinase still bound, per cent of control (MAPK8 (human)): 7% | kinase still bound, per cent of control (DAPK3 (human)): 7.4% | kinase still bound, per cent of control [1]: 6.2% | kinase still bound, per cent of control (PIM3 (human)): 2.7% | kinase still bound, per cent of control [2]: 1.8% | kinase still bound, per cent of control (TNIK (human)): 11% | kinase still bound, per cent of control (TTK (human)): 17% | kinase still bound, per cent of control (RPS6KA2 KD2 (human)): 6.2% | kinase still bound, per cent of control (CSNK2A2 (human)): 5.6% | kinase still bound, per cent of control (MKNK2 (human)): 23% | kinase still bound, per cent of control [3]: 9.6% | kinase still bound, per cent of control [4]: 5% | kinase still bound, per cent of control (CIT (human)): 28% | kinase still bound, per cent of control (GAK (human)): 1.3% | kinase still bound, per cent of control (STK11 (human)): 17% | kinase still bound, per cent of control (PIK3CG (human)): 16% | kinase still bound, per cent of control (BRSK2 (human)): 29% | kinase still bound, per cent of control [6]: 23% | kinase still bound, per cent of control (BMP2K (human)): 0.4% | kinase still bound, per cent of control (STK17B (human)): 0.25% | kinase still bound, per cent of control (AURKB (human)): 27% | kinase still bound, per cent of control (CLK4 (human)): 6.1% | kinase still bound, per cent of control (PIM2 (human)): 0.55% | kinase still bound, per cent of control (RPS6KA6 KD2 (human)): 5.4% | kinase still bound, per cent of control (DYRK1B (human)): 13% | kinase still bound, per cent of control (TLK1 (human)): 5.8% | kinase still bound, per cent of control (CLK1 (human)): 5.6% | kinase still bound, per cent of control (PLK4 (human)): 0.85%
Structure (SMILES): O=C1NC(=S)S/C1=C\c1ccc(-c2cncc3ccccc23)o1

kinase still bound, per cent of control (PIP5K1A (human)): 17% | kinase still bound, per cent of control (SRPK2 (human)): 26% | kinase still bound, per cent of control (DAPK3 (human)): 0.6% | kinase still bound, per cent of control (PIM3 (human)): 5.4% | kinase still bound, per cent of control (RPS6KA2 KD2 (human)): 3.8% | kinase still bound, per cent of control (CSNK2A2 (human)): 9.6% | kinase still bound, per cent of control (RPS6KA4 KD2 (human)): 0.1% | kinase still bound, per cent of control (MELK (human)): 30% | kinase still bound, per cent of control (TAOK1 (human)): 21% | kinase still bound, per cent of control [5]: 4.8% | kinase still bound, per cent of control (GAK (human)): 9.2% | kinase still bound, per cent of control (ULK2 (human)): 33% | kinase still bound, per cent of control (STK11 (human)): 19% | kinase still bound, per cent of control (PIK3CG (human)): 11% | kinase still bound, per cent of control (MAP4K2 (human)): 30% | kinase still bound, per cent of control (BMP2K (human)): 1% | kinase still bound, per cent of control (STK17B (human)): 1% | kinase still bound, per cent of control (AURKB (human)): 8% | kinase still bound, per cent of control (CLK4 (human)): 16% | kinase still bound, per cent of control (PIM2 (human)): 1% | kinase still bound, per cent of control (DYRK1B (human)): 0.4% | kinase still bound, per cent of control (CLK1 (human)): 2.1%
Structure (SMILES): Nc1cccc(-c2cc(/C=C3\SC(=O)NC3=O)c[nH]c2=O)c1

From the kinase profiling compilation of Christmann-Franck et al. (2016)
